Source: patent US20090130020A1, “DIAGNOSTIC AGENTS FOR POSITRON EMISSION IMAGING USING F-18 RADIO-LABELED AMINO-ALCOHOLS” (priority 2007, published 2009)

Tests used:
[1] = test system: DU-145 prostate cell line; test: Uptake of [F-18]-labeled compounds into tumor cells; type: cell-based; conditions: 5×10^6 cells, 0.5 MBq, time point not given
Method: (§1) The uptake of [F-18]-labeled compounds was investigated by incubating 5×10^6 cells in 350 μl incubation buffer with 0.5 MBq [F-18]-labeled compound and taking aliquots at the various time points. The aliquots were transferred into oil, centrifuged shortly to separate cells from free compounds. The tubes were frozen, the cell pellet in the tip of the tube was cut off and radioactivity was measured in a gamma counter.

PC-3 prostate cell line = test: as above; type: cell-based; conditions: 5×10^6 cells, 0.5 MBq, time point not given
Method: as §1

[2] = test system: colon cancer cell line HCT-116; test: as above; type: cell-based; conditions: 5×10^6 cells, 0.5 MBq, time point not given
Method: as §1

[3] = test system: lung cancer cell line A549; test: as above; type: cell-based; conditions: 5×10^6 cells, 0.5 MBq, time point not given
Method: as §1

melanoma cell line A375 = test: as above; type: cell-based; conditions: 5×10^6 cells, 0.5 MBq, time point not given
Method: as §1

[4] = test system: tumor cells lines A375, PC-3, HCT-116, A549 and DU-145; test: Time dependent uptake of [F-18]-labeled compounds, all cell lines together; type: cell-based
Method: as §1
FIG. 7: Time dependent uptake of [F-18]-Fluoroethyl-Choline (FE-Ch) into the tumor cells lines A375, PC-3, HCT-116, A549 and DU-145.
FIG. 8: Time dependent uptake of [F-18]-Fluoroethyl-N-Methyl-Ethanolamine into the tumor cells lines A375, PC-3, HCT-116, A549 and DU-145.
FIG. 9: Time dependent uptake of [F-18]-Fluoroethyl-N-Ethyl-Ethanolamine into the tumor cells lines A375, PC-3, HCT-116, A549 and DU-145.
FIG. 10: Time dependent uptake of [F-18]-Fluoropropyl-N-Methyl-Ethanolamine into the tumor cells lines A375, PC-3, HCT-116, A549 and DU-145.

tumor = conditions: bio-distribution studies; cited from earlier work

Molecule	uptake [1] [%]	uptake (PC-3 prostate cell line) [%]	uptake [2] [%]	uptake [3] [%]	uptake (melanoma cell line A375) [%]	maximum value of uptake reached after 60 min ([4]; after 60 min, all cell lines)	course of uptake over time ([4]; over the 60 minutes investigated)	uptake after 30 min ([4]; after 30 min, across the cell lines (FIG. 8))	tumor uptake in bio-distribution (tumor)
C[N+](C)(CCO)CC[18F] [FE-Ch, [F-18]-Fluoroethyl-Choline]	3	6.5	4	4	4	5-10%	slowly linear increasing	–	–
CN(CCO)CC[18F] [[F-18]-Fluoroethyl-N-Methyl-Ethanolamine, [F-18]2-[(2-Fluoro-ethyl)-methyl-amino]-ethanol]	20.5	25.5	29	17	22	–	–	17-30%	–
[C-14]dimethyl-ethanolamine	–	–	–	–	–	–	–	–	tumor uptake
[C-14]ethanolamine [[C-14] derivative of ethanolamine (1)]	–	–	–	–	–	–	–	–	tumor uptake
